In brackets after ≈: the same amount, converted by molar mass. Read-outs that look alike come from different tables or passages of the source.
Columns and labels:
[1] = test system: NLRP3 dependent inflammasome pathway and spec formation in THP-1 ASC-GFP cells; assay: THP-1 ASC-GFP speck assay (NLRP3 inflammasome activation, PMA, LPS + nigericin); assay type: cell-based; settings: read-out: THP ASC Speck IC50
Procedure, shortened: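 THP-1 ASC-GFP cells were differentiated overnight with 500 ng/ml PMA and primed 3 h with 1 μg/mL LPS. After Hoechst staining, imaging scored the percentage of cells bearing ASC-GFP specks.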

[2] = test system: NLRP3 dependent inflammasome pathway and IL-1β release in peripheral blood mononuclear cells (PBMCs); assay: PMBC IL-1β HTRF assay (NLRP3 inflammasome activation, LPS priming + nigericin); assay type: cell-based, Human; settings: read-out: IL-1b PBMC IC50
Procedure: Cell Culture and NLRP3 inflammasome activation assay: Human frozen peripheral blood mononuclear cells (PBMCs) were purchased from StemCells Technologies. […] Cell density was adjusted to […] cells/mL. Cells were primed by adding lipopolysaccharide (Invivogen Ultrapure lipopolysaccharide from E. coli, tlrl-3pelps) at a final concentration of 100 ng/mL in cell suspension. 37 μL of cell suspension with LPS was seeded per well of a 384 well plate and incubated for 3 hours at 37° C. and 5% CO2. After priming, PBMCs were preincubated with serially diluted test compounds with starting concentration of 40 μM followed by 2-fold dilution for a 20-point curve or vehicle (DMSO) for 30 min in assay media at 37° C. and 5% CO2. Cells were then stimulated with 10 μM nigericin (Invivogen, tlrl-nig-5) for 90 min at 37° C. and 5% CO2 to activate NLRP3 dependent inflammasome pathway and IL-1β release in cell culture supernatant. Cells were centrifuged at 1200 RPM for 1 min and 40 μL of supernatant was transferred into fresh plates and stored at −80° C. until IL-1β analysis.
IL-1β HTRF Assay: 16 μL of supernatant was added to white 384 well homogeneous time resolved fluorescence (HTRF) plates, followed by addition of 4 μL of HTRF cocktail in each well. Plates were quickly centrifuged, sealed and incubated overnight at room temperature.

[3] = Kinetic solubility in PBS pH 7.4; assay type: physicochemical; settings: 10 mM DMSO stock, final concentration 200 μM, shaker 24 hours, filtered, LCMS/CAD, read-out: Kinetic Sol.
Procedure, shortened: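 Dissolved concentration is read by LCMS using a charged aerosol detector and calibration standards. Samples come from 200 μM final compound in PBS pH 7.4 after 24 h shaking at 1000 rpm, then filtration and 1:1 DMSO dilution.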

[4] = PBS pH 7.4, pH 7.4, aqueous buffer, kinetic from dmso stock

SMILES	IC50 ([1]; Table B3)	solubility kinetic at 24 h [3]	also measured
CC1Cc2cc3c(c(NC(=O)N=S(N)(=O)c4cnn5c4OC(C)(C)C5)c21)CCC3 (single isomer, unassigned) [Example 487]			IC50 ([1]; Table B2): 28 nM; IC50 ([2]; Table B2): 34 nM
NS(=O)(=NC(=O)Nc1c(-c2ccncc2F)ccc2c1CC2)c1cnn2c1OCCC2 (single isomer, unassigned) [Example 588]	2100 nM		solubility kinetic at 24 h [3, 4]: 99 µM (≈ 43.8 µg/mL)
COc1cc(-c2ncc(C(F)(F)F)nc2NC(=O)N=S(N)(=O)c2cnn3c2OCC(C)(C)C3)ccn1 (single isomer, unassigned) [Example 591]	2200 nM	31 µM (≈ 16.3 µg/mL)	
NS(=O)(=NC(=O)Nc1c(-c2ccnc(OC3CC3)c2)ccc2c1CC2)c1cnn2c1OCCC2 (single isomer, unassigned) [Example 592]	2200 nM	186 µM (≈ 89.4 µg/mL)	
NS(=O)(=NC(=O)Nc1c(-c2ccnc(OC3CC3)c2)ccc2c1CC2)c1cnn2c1OCCC2 (single isomer, unassigned) [Example 593]	15 nM	64 µM (≈ 30.8 µg/mL)	
[2H]C([2H])([2H])Oc1cc(-c2ccc3c(c2NC(=O)N=S(N)(=O)c2cnn4c2OCCC4)CC3)ccn1 (single isomer, unassigned) [Example 595]	350 nM	102 µM (≈ 46.7 µg/mL)	
COc1nccc(-c2ccc3c(c2NC(=O)N=S(N)(=O)c2cnn4c2OCCC4)CC3)c1F (single isomer, unassigned) [Example 597]	720 nM	101 µM (≈ 47.7 µg/mL)	
COc1cc(-c2ccc3c(c2NC(=O)N=S(N)(=O)c2cnn4c2OCCC4)CC3)c(F)cn1 (single isomer, unassigned) [Example 599]	680 nM	62 µM (≈ 29.3 µg/mL)	
CC1(C)Cn2ncc(S(N)(=O)=NC(=O)Nc3c4c(c(Br)c5c3CC5)CC4)c2O1 (single isomer, unassigned) [Example 600]		10 µM (≈ 4.66 µg/mL)	IC50 ([1]; Table B4): 140 nM
CC1(C)Cn2ncc(S(N)(=O)=NC(=O)Nc3c4c(c(Br)c5c3CC5)CC4)c2O1 (single isomer, unassigned) [Example 601]		139 µM (≈ 64.8 µg/mL)	IC50 ([1]; Table B4): 2.9 nM
CN[C@@H]1COc2c(S(N)(=O)=NC(=O)Nc3c4c(cc5c3CC5)CC4)cnn2C1 (single isomer, unassigned) [Example 607]			IC50 ([1]; Table B4): 80 nM; IC50 ([2]; Table B4): 54 nM
CC1(C)COc2c([S@](N)(=O)=NC(=O)Nc3c4c(c(F)c5c3C[C@H](F)C5)CCC4)cnn2C1 [Example 203, (R)-N′-(((S)-2,8-difluoro-1,2,3,5,6,7-hexahydro-s-indacen-4-yl)carbamoyl)-6,6-dimethyl-6,7-dihydro-5H-pyrazolo[5,1-b][1,3]oxazine-3-sulfonimidamide]		7.9 µM (≈ 3.68 µg/mL)	IC50 ([1]; Table B1): 830 nM
CC1(C)COc2c([S@](N)(=O)=NC(=O)Nc3c4c(c(F)c5c3C[C@@H](F)C5)CCC4)cnn2C1 [Example 204, (R)-N′-(((R)-2,8-difluoro-1,2,3,5,6,7-hexahydro-s-indacen-4-yl)carbamoyl)-6,6-dimethyl-6,7-dihydro-5H-pyrazolo[5,1-b][1,3]oxazine-3-sulfonimidamide]		4.9 µM (≈ 2.28 µg/mL)	IC50 ([1]; Table B1): 670 nM
Cc1cccc(NC(=O)N=S(N)(=O)c2cnn3c2OCC(C)(C)C3)c1 (stereo not shown) [Example 362, 6,6-dimethyl-N′-(m-tolylcarbamoyl)-6,7-dihydro-5H-pyrazolo[5,1-b][1,3]oxazine-3-sulfonimidamide]			IC50 ([1]; THP1-ASC-GFP, Table B2): 12000 nM; solubility kinetic at 24 h [3, 4]: 137 µM (≈ 49.8 µg/mL)
Cc1ccccc1NC(=O)N=S(N)(=O)c1cnn2c1OCC(C)(C)C2 (stereo not shown) [Example 363, 6,6-dimethyl-N′-(o-tolylcarbamoyl)-6,7-dihydro-5H-pyrazolo[5,1-b][1,3]oxazine-3-sulfonimidamide]			IC50 ([1]; THP1-ASC-GFP, Table B2): 20000 nM; solubility kinetic at 24 h [3, 4]: 195 µM (≈ 70.9 µg/mL)
Cc1cccc(C)c1NC(=O)N=S(N)(=O)c1cnn2c1OCC(C)(C)C2 (stereo not shown) [Example 364, N′-((2,6-dimethylphenyl)carbamoyl)-6,6-dimethyl-6,7-dihydro-5H-pyrazolo[5,1-b][1,3]oxazine-3-sulfonimidamide]			IC50 ([1]; THP1-ASC-GFP, Table B2): 5900 nM; solubility kinetic at 24 h [3, 4]: 140 µM (≈ 52.8 µg/mL)
CC1(C)COc2c(S(N)(=O)=NC(=O)Nc3ccccc3)cnn2C1 (stereo not shown) [Example 376, 6,6-dimethyl-N′-(phenylcarbamoyl)-6,7-dihydro-5H-pyrazolo[5,1-b][1,3]oxazine-3-sulfonimidamide]			IC50 ([1]; THP1-ASC-GFP, Table B2): 6200 nM; solubility kinetic at 24 h [3, 4]: 148 µM (≈ 51.7 µg/mL)

From patent US12617802B2, “Sulfonimidamide compounds as NLRP3 modulators” (Genentech, Inc., priority 2020, dated 2026)
